In general, logD refers to lipophilicity at a set pH, counting ionised and neutral species. In general, pKa refers to the pH at which an ionisable group is half protonated. Lower therefore signals a group that gives up its proton readily.

Values after ≈ are worked out from the molar mass of the structure shown.

Data on 17 compounds can be found in ChEMBL document CHEMBL4808184, “Discovery and Optimization of DNA Gyrase and Topoisomerase IV Inhibitors with Potent Activity against Fluoroquinolone-Resistant Gram-Positive Bacteria” (J Med Chem, 2021).

The test system of one series is Staphylococcus aureus. Description: microbe, parasite or virus in culture. The following applies: ATCC 49951.
`Cc1c(N2CCC(C3(N)CC3)C2)c(F)cc2c(Cc3noc(=S)[nH]3)cc(=O)n(C3CC3)c12` (centres undefined) yielded an MIC of 8 µg/mL (≈ 17.6 µM).

`Cc1c(N2CCC(C3(N)CC3)C2)c(F)cc2c(-c3noc(=S)[nH]3)cc(=O)n(C3CC3)c12` (centres undefined) came in with an MIC of 4 µg/mL (≈ 9.06 µM).

The compound `C[C@H]1COc2c(N3C[C@@H]4CCC[C@H](N)[C@H]4C3)c(F)cc3cc(C(=O)O)c(=O)n1c23` came in with an MIC of 0.06 µg/mL (≈ 0.149 µM).

The compound `Cc1c(N2CC[C@@H](C3(N)CC3)C2)c(F)cc2cc(C(N)=O)c(=O)n(C3CC3)c12` yielded an MIC of 0.25 µg/mL (≈ 0.65 µM).

The compound `Cc1c(N2CCC(C3(N)CC3)C2)c(F)cc2c(-c3n[nH]c(=O)o3)cc(=O)n(C3CC3)c12` (centres undefined) returned an MIC of 0.5 µg/mL (≈ 1.18 µM).

On to `C[C@H]1COc2c(N3CC[C@@H](C4(N)CC4)C3)cc(C#N)c3cc(C(=O)O)c(=O)n1c23`, for which the MIC is 0.25 µg/mL (≈ 0.634 µM).

For `Cc1c(N2CC[C@@H](C3(N)CC3)C2)c(F)cc2cc(-c3nnco3)c(=O)n(C3CC3)c12`, the MIC was determined as 0.125 µg/mL (≈ 0.305 µM).

As to `C[C@H]1COc2c(N3CC[C@@H](C4(N)CC4)C3)c(C#N)cc3cc(C(=O)O)c(=O)n1c23`, the MIC was 0.25 µg/mL (≈ 0.634 µM).

`C[C@H]1COc2c(N3CC[C@@H](C4(N)CC4)C3)c(F)c(F)c3cc(C(=O)O)c(=O)n1c23` showed an MIC of 0.06 µg/mL (≈ 0.148 µM).

For `C[C@H]1COc2c(N3CC[C@@H](C4(N)CC4)C3)c(Cl)cc3cc(C(=O)O)c(=O)n1c23`, the MIC stood at 2 µg/mL (≈ 4.95 µM).

Turning to `C[C@H]1COc2c(N3CC[C@@H](C4(N)CC4)C3)c(F)c(Cl)c3cc(C(=O)O)c(=O)n1c23`, the MIC was at most 0.03 µg/mL.

`Cc1c(N2CC[C@@H](C3(N)CC3)C2)c(F)cc2cc(-c3n[nH]c(=O)o3)c(=O)n(C3CC3)c12` had an MIC of 0.125 µg/mL (≈ 0.294 µM).

Compound `C[C@@H]1COc2c(N3CC[C@@H](C4(N)CC4)C3)c(F)cc3cc(C(=O)O)c(=O)n1c23` had an MIC of 16 µg/mL (≈ 41.3 µM).

`C[C@H]1COc2c(N3CC[C@@H](C4(N)CC4)C3)cc(F)c3cc(C(=O)O)c(=O)n1c23`: the MIC is 0.25 µg/mL (≈ 0.645 µM).

For `C[C@H]1CCc2c(N3CC[C@@H](C4(N)CC4)C3)c(F)cc3cc(C(=O)O)c(=O)n1c23`, the MIC was 0.06 µg/mL (≈ 0.156 µM).

System in another series: not listed separately
Description: physchem. The following applies: octanol/water, pH 7.4.
As to `Cc1c(N2CCC(C3(N)CC3)C2)c(F)cc2c(Cc3noc(=S)[nH]3)cc(=O)n(C3CC3)c12` (centres undefined), the logD is -0.3.

In the case of `C[C@H]1COc2c(N3C[C@@H]4CCC[C@H](N)[C@H]4C3)c(F)cc3cc(C(=O)O)c(=O)n1c23`, the logD was -1.03.

`C[C@H]1COc2c(N3CC[C@@H](C4(N)CC4)C3)cc(C#N)c3cc(C(=O)O)c(=O)n1c23`: the pH-dependent lipophilicity (logD) was -0.55.

For the compound `C[C@H]1COc2c(N3CC[C@@H](C4(N)CC4)C3)c(C#N)cc3cc(C(=O)O)c(=O)n1c23`, the logD was -1.77.

On to `C[C@H]1COc2c(N3CC[C@@H](C4(N)CC4)C3)c(F)c(F)c3cc(C(=O)O)c(=O)n1c23`, for which the logD is -0.85.

The compound `C[C@H]1COc2c(N3CC[C@@H](C4(N)CC4)C3)c(Cl)cc3cc(C(=O)O)c(=O)n1c23` returned a logD of -1.12.

The compound `C[C@H]1COc2c(N3CC[C@@H](C4(N)CC4)C3)c(F)c(Cl)c3cc(C(=O)O)c(=O)n1c23` gave a logD of -0.46.

Consider `C[C@@H]1COc2c(N3CC[C@@H](C4(N)CC4)C3)c(F)cc3cc(C(=O)O)c(=O)n1c23`, for which the logD was -0.92.

Compound `C[C@H]1COc2c(N3CC[C@@H](C4(N)CC4)C3)cc(F)c3cc(C(=O)O)c(=O)n1c23` yielded a logD of -0.4.

`C[C@H]1CCc2c(N3CC[C@@H](C4(N)CC4)C3)c(F)cc3cc(C(=O)O)c(=O)n1c23` displayed a logD of -0.27.

System in a further series: not listed separately
As to the kind of experiment: physchem.
Details: not given
`Cc1c(N2CCC(C3(N)CC3)C2)c(F)cc2c(Cc3noc(=S)[nH]3)cc(=O)n(C3CC3)c12` (centres undefined) registered a pKa of 2.5.

`Cc1c(N2CCC(C3(N)CC3)C2)c(F)cc2c(-c3noc(=S)[nH]3)cc(=O)n(C3CC3)c12` (centres undefined) came in with a pKa of 2.

`C[C@H]1COc2c(N3C[C@@H]4CCC[C@H](N)[C@H]4C3)c(F)cc3cc(C(=O)O)c(=O)n1c23` returned a pKa of 5.2.

`Cc1c(N2CC[C@@H](C3(N)CC3)C2)c(F)cc2cc(C(N)=O)c(=O)n(C3CC3)c12` came in with a pKa of 8.4.

In turn, `Cc1c(N2CCC(C3(N)CC3)C2)c(F)cc2c(-c3n[nH]c(=O)o3)cc(=O)n(C3CC3)c12` (centres undefined) had a pKa of 6.4.

For `Cc1c(N2CC[C@@H](C3(N)CC3)C2)c(F)cc2cc(-c3nnco3)c(=O)n(C3CC3)c12`, the pKa stood at 8.3.

Compound `Cc1c(N2CC[C@@H](C3(N)CC3)C2)c(F)cc2cc(-c3n[nH]c(=O)o3)c(=O)n(C3CC3)c12` gave a pKa of 7.2.

For another series, the system named is Staphylococcus aureus. As to the kind of experiment: microbe, parasite or virus in culture. The following applies: ATCC 49951. This is another data set of the same source.
Compound `C[C@H]1COc2c(N3CC[C@@H](C4(N)CC4)C3)ccc3cc(C(=O)O)c(=O)n1c23` came in with an MIC of 4 µg/mL (≈ 10.8 µM).

`Cc1c(N2CCC(C3(N)CC3)C2)c(F)cc2c(Cc3noc(=S)[nH]3)cc(=O)n(C3CC3)c12` (centres undefined) had an MIC of 8 µg/mL (≈ 17.6 µM).

`Cc1c(N2CCC(C3(N)CC3)C2)c(F)cc2c(-c3noc(=S)[nH]3)cc(=O)n(C3CC3)c12` (centres undefined) gave an MIC of 4 µg/mL (≈ 9.06 µM).

For `C[C@H]1COc2c(N3C[C@@H]4CCC[C@H](N)[C@H]4C3)c(F)cc3cc(C(=O)O)c(=O)n1c23`, the MIC came out at 0.5 µg/mL (≈ 1.25 µM).

`Cc1c(N2CC[C@@H](C3(N)CC3)C2)c(F)cc2cc(C(N)=O)c(=O)n(C3CC3)c12` gave an MIC of 1 µg/mL (≈ 2.6 µM).

Compound `Cc1c(N2CCC(C3(N)CC3)C2)c(F)cc2c(-c3n[nH]c(=O)o3)cc(=O)n(C3CC3)c12` (centres undefined) displayed an MIC of 1 µg/mL (≈ 2.35 µM).

With `C[C@H]1COc2c(N3CC[C@@H](C4(N)CC4)C3)cc(C#N)c3cc(C(=O)O)c(=O)n1c23`, the MIC stood at 2 µg/mL (≈ 5.07 µM).

Take `Cc1c(N2CC[C@@H](C3(N)CC3)C2)c(F)cc2cc(-c3nnco3)c(=O)n(C3CC3)c12`: the MIC worked out at 0.125 µg/mL (≈ 0.305 µM).

`C[C@H]1COc2c(N3CC[C@@H](C4(N)CC4)C3)c(C#N)cc3cc(C(=O)O)c(=O)n1c23` yielded an MIC of 4 µg/mL (≈ 10.1 µM).

Turning to `C[C@H]1COc2c(N3CC[C@@H](C4(N)CC4)C3)c(F)c(F)c3cc(C(=O)O)c(=O)n1c23`, the MIC is 1 µg/mL (≈ 2.47 µM).

With `C[C@H]1COc2c(N3CC[C@@H](C4(N)CC4)C3)c(Cl)cc3cc(C(=O)O)c(=O)n1c23`, the MIC was found to be 32 µg/mL (≈ 79.2 µM).

In turn, `C[C@H]1COc2c(N3CC[C@@H](C4(N)CC4)C3)c(F)c(Cl)c3cc(C(=O)O)c(=O)n1c23` yielded an MIC of 0.5 µg/mL (≈ 1.19 µM).

For `C[C@H]1COc2c(N3CC[C@@H](C4(N)CC4)C3)cc(Cl)c3cc(C(=O)O)c(=O)n1c23`, the MIC came to 1 µg/mL (≈ 2.48 µM).

Take `Cc1c(N2CC[C@@H](C3(N)CC3)C2)c(F)cc2cc(-c3n[nH]c(=O)o3)c(=O)n(C3CC3)c12`: the MIC came to 0.06 µg/mL (≈ 0.141 µM).

Turning to `C[C@@H]1COc2c(N3CC[C@@H](C4(N)CC4)C3)c(F)cc3cc(C(=O)O)c(=O)n1c23`, the MIC was above 32 µg/mL.

As to `C[C@H]1COc2c(N3CC[C@@H](C4(N)CC4)C3)cc(F)c3cc(C(=O)O)c(=O)n1c23`, the MIC is 2 µg/mL (≈ 5.16 µM).

Compound `C[C@H]1CCc2c(N3CC[C@@H](C4(N)CC4)C3)c(F)cc3cc(C(=O)O)c(=O)n1c23` returned an MIC of 1 µg/mL (≈ 2.59 µM).
